These results are taken from US20190133985A1 (Orbus Therapeutics, Inc., priority 2016, published 2019).

One data set deals with low-grade gliomas. Particulars: adjuvant temozolomide chemotherapy; TMZ-induced mutagenesis signature in RB and AKT-mTOR pathways; cited from earlier work.
The subject of another data set is GPR116 gene. In words: Exon-Seq frequency of C/T mutation at chr6: 46,867,771 in U87MG cells. Particulars: for mutation rate: TMZ EC-20 for 3 days then eflornithine 100 μM.
Another data set relates to ADAM 32 gene. In words: Exon-Seq frequency of G/A mutation at chr8: 38,964,647 in U87MG cells. Conditions: for mutation rate: TMZ EC-50 for 3 days then eflornithine 200 μM.
A further data set deals with U87MG cells. In words: Exon-Seq mutation frequency in glioblastoma cell line model (nucleotides susceptible to TMZ-induced mutations). In kind it is cell-based, human. The method, then:
Preliminary data analysis was performed to identify nucleotides susceptible to temozolomide (TMZ)-induced mutations per TMZ concentration. Mutation frequency results were analyzed for 13,040 nucleotide polymorphisms across 6,455 genes that have been previously identified as potentially cancer related based on their description in the Catalogue of Somatic Mutations in Cancer (COSMIC) database.
Statistical analysis of the Exon-Seq data was performed using JMP™ Software. The mutation frequencies were analyzed using ANOVA analysis of variance and the Student's t-test.

The test system of another data set is TP53BP1 gene. Nature of the data set: Exon-Seq frequency of C/T mutation at chr15: 43,762,196 in U87MG cells. Particulars: for mutation rate: TMZ EC-50 for 3 days then eflornithine 200 μM.
A further data set has as its system MUC16 gene. In words: Exon-Seq frequency of T/A mutation at chr19: 9,071,763 in U87MG cells. Conditions: for mutation rate: TMZ EC-50 for 3 days then eflornithine 200 μM.

Where a name gives a salt, the structure may show the parent alone.

On to `Cn1nnc2c(C(N)=O)ncn2c1=O` [TMZ, 4-methyl-5-oxo-2,3,4,6,8-pentazabicyclo[4.3.0]nona-2,7,9-triene-9-carboxamide], for which the “patients whose tumors showed hypermutation (alternative evolutionary path to high-grade glioma)” value in the data set with low-grade gliomas is given as 6 of 10. Moreover, the mutation frequency is given as 69.6% with GPR116 gene (TMZ EC-20, day 3); 63.6% with ADAM 32 gene (TMZ EC-50, day 3); 62.5% with TP53BP1 gene (TMZ EC-50, day 3); 64.0% in the data set on MUC16 gene (TMZ EC-50, day 3). For the same compound, the “Number of nucleotides showing higher than 15% mutation frequency increase due to TMZ treatment” value in the data set with U87MG cells (All three concentrations) worked out at 97; in the data set with U87MG cells (At least one concentration), 876; in the data set on U87MG cells (TMZ EC10, 13,040 nucleotide polymorphisms across 6,455 genes) it was 424; in the data set with U87MG cells (TMZ EC20), 436; with U87MG cells (TMZ EC50) it was 417. Besides, the “Mean Mutation Frequency” value came out at 57% in the data set with U87MG cells (TMZ EC10, T = 3 days); 59% with U87MG cells (TMZ EC20, T = 3 days); 60% in the data set with U87MG cells (TMZ EC50, T = 3 days). Also, the “effect on mutation frequency, combined data set (ANOVA, Student's t-test)” value in the data set on U87MG cells (TMZ EC-10), in the data set on U87MG cells (TMZ EC-20) and with U87MG cells (TMZ EC-50) was “significant increase” throughout.
On to `NCCCC(N)(C(=O)O)C(F)F` (racemic) [eflornithine, D,L-2-(difluoromethyl) ornithine monohydrochloride monohydrate], for which the mutation rate in the data set on GPR116 gene (7 days) is 60.6%; in the data set on GPR116 gene (14 days) it was 45.0%; in the data set on ADAM 32 gene (7 days) it was 33.3%; in the data set on ADAM 32 gene (14 days) it was 43.2%; with TP53BP1 gene (7 days), 29.7%; in the data set on TP53BP1 gene (14 days) it was 38.4%. Further, the mutation rate with MUC16 gene (7 days) was 49.1%; with MUC16 gene (14 days), 47.3%. Also, the “effect on mutation rate compared to the TMZ-treated cells, combined data set (ANOVA, Student's t-test)” value in the data set with U87MG cells (sequential DFMO 100 μM after TMZ EC-20), with U87MG cells (sequential eflornithine 50 μM after TMZ EC-10) and in the data set with U87MG cells (sequential eflornithine 200 μM after TMZ EC-50) was “significant decrease” in each case.
